Test results reported in PubChem BioAssay AID248 (DTP/NCI, 2004).
Values joined by “and” are separate entries in the source; they are usually repeats but may differ in a detail not shown here. Equal values may be shown once. Toxic doses and inconclusive results are not listed. No stated cut-off is given here; in the data, active means T/C of 150% or more; inactive means T/C below 125%.

Test system: L1210 leukemia ip in BDF1 mice, survival T/C
Experiment: NCI In Vivo Anticancer Drug Screen. Data for tumor model L1210 Leukemia (intraperitoneal) in B6D2F1 (BDF1) mice
Details: endpoint: mean survival time, higher = longer survival
Summary of the method: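 Survival endpoint. Drug-treated group vs vehicle group, expressed as T divided by C. Tumor passaged by transplantation.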

[1] = dose: 150.0 mg/kg/injection, schedule: Q01DX009 (ip), vehicle: Klucel (hydroxypropylcellulose) (HPC)
[2] = dose: 50.0 mg/kg/injection, schedule: Q04DX003 (ip), vehicle: Klucel (hydroxypropylcellulose) (HPC)
[3] = dose: 100.0 mg/kg/injection, schedule: Q04DX003 (ip), vehicle: Klucel (hydroxypropylcellulose) (HPC)
[4] = dose: 200.0 mg/kg/injection, schedule: Q04DX003 (ip), vehicle: Klucel (hydroxypropylcellulose) (HPC)
[5] = dose: 100.0 mg/kg/injection, schedule: Q01DX009 (ip), vehicle: Klucel (hydroxypropylcellulose) (HPC)
[6] = dose: 200.0 mg/kg/injection, schedule: Q01DX009 (ip), vehicle: Klucel (hydroxypropylcellulose) (HPC)
[7] = dose: 100.0 mg/kg/injection, schedule: Q04DX003 (ip), vehicle: saline with Tween-80
[8] = dose: 200.0 mg/kg/injection, schedule: Q04DX003 (ip), vehicle: saline with Tween-80
[9] = dose: 400.0 mg/kg/injection, schedule: Q04DX003 (ip), vehicle: saline with Tween-80
[10] = dose: 100.0 mg/kg/injection, schedule: Q01DX001 (ip), vehicle: Klucel (hydroxypropylcellulose) (HPC)
[11] = dose: 200.0 mg/kg/injection, schedule: Q01DX001 (ip), vehicle: Klucel (hydroxypropylcellulose) (HPC)
[12] = dose: 400.0 mg/kg/injection, schedule: Q01DX001 (ip), vehicle: Klucel (hydroxypropylcellulose) (HPC)
[13] = dose: 100.0 mg/kg/injection, schedule: Q01DX009 (ip), vehicle: saline
[14] = dose: 200.0 mg/kg/injection, schedule: Q01DX009 (ip), vehicle: saline
[15] = dose: 400.0 mg/kg/injection, schedule: Q01DX009 (ip), vehicle: saline
[16] = dose: 100.0 mg/kg/injection, schedule: Q01DX001 (ip), vehicle: saline
[17] = dose: 200.0 mg/kg/injection, schedule: Q01DX001 (ip), vehicle: saline
[18] = dose: 400.0 mg/kg/injection, schedule: Q01DX001 (ip), vehicle: saline
[19] = dose: 100.0 mg/kg/injection, schedule: Q01DX009 (ip), vehicle: saline with Tween-80
[20] = dose: 200.0 mg/kg/injection, schedule: Q01DX009 (ip), vehicle: saline with Tween-80
[21] = dose: 400.0 mg/kg/injection, schedule: Q01DX009 (ip), vehicle: Klucel (hydroxypropylcellulose) (HPC)
[22] = dose: 400.0 mg/kg/injection, schedule: Q04DX003 (ip), vehicle: Klucel (hydroxypropylcellulose) (HPC)

Measured: T/C

Cc1cccc(C)c1NC(=O)NC/C(Br)=C/Br
inactive: dose: 75.0 mg/kg/injection, schedule: Q01DX009 (ip), vehicle: Klucel (hydroxypropylcellulose) (HPC) 100 % of control | [1] 100 % of control | dose: 300.0 mg/kg/injection, schedule: Q01DX009 (ip), vehicle: Klucel (hydroxypropylcellulose) (HPC) 104 % of control

O=C1COc2ccccc2N1
inactive: [2] 96 % of control | dose: 100.0 mg/kg/injection, schedule: Q01DX001 (ip), vehicle: other 103 % of control | [3] 94 % of control | dose: 200.0 mg/kg/injection, schedule: Q01DX001 (ip), vehicle: other 96 % of control | [4] 96 % of control

CCCCCCCCCCCCCCCCCC(=O)NCCNC(=O)CCCCCCCCCCCCCCCCC
inactive: dose: 12.5 mg/kg/injection, schedule: Q04DX003 (ip), vehicle: Klucel (hydroxypropylcellulose) (HPC) 103 % of control | dose: 25.0 mg/kg/injection, schedule: Q01DX009 (ip), vehicle: Klucel (hydroxypropylcellulose) (HPC) 108 % of control | dose: 25.0 mg/kg/injection, schedule: Q04DX003 (ip), vehicle: Klucel (hydroxypropylcellulose) (HPC) 107 % of control | dose: 50.0 mg/kg/injection, schedule: Q01DX009 (ip), vehicle: Klucel (hydroxypropylcellulose) (HPC) 104 % of control | [2] 104 % of control | [5] 104 % of control | [3] 90 % of control | [1] 88 % of control | [4] 96 % of control

COc1cc2c(cc1OC)C1CC(=O)CCN1CC2 (stereo not drawn)
inactive: [6] 101 % of control

CC1(C)CC(C(N)=O)C(=O)O1 (stereo not drawn)
inactive: [7] 101 % of control | [8] 103 % of control | [9] 101 % of control

COC1OCC(OS(C)(=O)=O)C(OS(C)(=O)=O)C1OS(C)(=O)=O (stereo not drawn)
inactive: [7] 97 % of control and 96 % of control | [8] 97 % of control and 98 % of control | [9] 100 % of control and 98 % of control

Nc1ccc(OCc2nc(N)nc(N)c2-c2ccc(Cl)cc2)cc1
inactive: [10] 102 % of control | [11] 105 % of control | [12] 96 % of control

CC(Br)C(=O)NCC(=O)NCC(=O)O (stereo not drawn)
inactive: [13] 100 % of control | dose: 100.0 mg/kg/injection, schedule: Q04DX003 (ip), vehicle: saline 101 % of control | [14] 89 % of control | dose: 200.0 mg/kg/injection, schedule: Q04DX003 (ip), vehicle: saline 101 % of control | [15] 90 % of control | dose: 400.0 mg/kg/injection, schedule: Q04DX003 (ip), vehicle: saline 97 % of control

CC(=O)[C@H]1CC[C@H]2[C@@H]3CCC4=CC(=O)[C@H](C)C[C@]4(C)[C@H]3C(=O)C[C@]12C
inactive: dose: 200.0 mg/kg/injection, schedule: Q01DX001 (sc), vehicle: steriod suspending solution 98 % of control | dose: 200.0 mg/kg/injection, schedule: Q01DX009 (sc), vehicle: steriod suspending solution 100 % of control | dose: 400.0 mg/kg/injection, schedule: Q01DX001 (sc), vehicle: steriod suspending solution 104 % of control | dose: 400.0 mg/kg/injection, schedule: Q01DX009 (sc), vehicle: steriod suspending solution 100 % of control | dose: 600.0 mg/kg/injection, schedule: Q01DX001 (sc), vehicle: steriod suspending solution 96 % of control | dose: 600.0 mg/kg/injection, schedule: Q01DX009 (sc), vehicle: steriod suspending solution 92 % of control | dose: 800.0 mg/kg/injection, schedule: Q01DX001 (sc), vehicle: steriod suspending solution 96 % of control | dose: 800.0 mg/kg/injection, schedule: Q01DX009 (sc), vehicle: steriod suspending solution 92 % of control

CNC1C(=O)C2CCC(C2)C1c1ccccc1 (stereo not drawn)
inactive: [16] 108 % of control | [17] 100 % of control | [18] 96 % of control

O=C(O)c1ccc(S(=O)(=O)O)cc1
inactive: [13] 100 % of control | [14] 97 % of control | [15] 101 % of control

O=C(CNC(=O)c1ccccc1)N/N=C/c1cccc2ccccc12
inactive: [19] 89 % of control | [20] 94 % of control | dose: 400.0 mg/kg/injection, schedule: Q01DX009 (ip), vehicle: saline with Tween-80 94 % of control

Cc1cc(C)c(N(CC(=O)O)S(=O)(=O)c2ccccc2)c(Sc2ccccc2)c1
inactive: [10] 113 % of control | [11] 98 % of control | [12] 100 % of control

Nc1nc(-c2ccccc2)cc(=O)[nH]1
inactive: [5] 88 % of control | [6] 97 % of control | [21] 93 % of control

CC1CCCC2OC(=O)C(C(N)=O)C12 (stereo not drawn)
inactive: [16] 95 % of control | [17] 100 % of control | [18] 97 % of control

OC(CC(O)(C(F)(F)F)C(F)(F)F)CC(O)(C(F)(F)F)C(F)(F)F
inactive: dose: 25.0 mg/kg/injection, schedule: Q01DX009 (ip), vehicle: saline with Tween-80 101 % of control | [7] 95 % of control

CNc1ccccc1C(N)=O
inactive: [5] 106 % of control | [3] 105 % of control | [6] 98 % of control | [4] 102 % of control | [21] 101 % of control | [22] 96 % of control

CN(C)C1CCC(C=C(C2CCC(CC(=O)O)CC2)C2CCC(CC(=O)O)CC2)CC1 (stereo not drawn)
inactive: dose: 100.0 mg/kg/injection, schedule: Q04DX002 (ip), vehicle: saline with Tween-80 111 % of control | dose: 200.0 mg/kg/injection, schedule: Q04DX002 (ip), vehicle: saline with Tween-80 101 % of control | dose: 400.0 mg/kg/injection, schedule: Q04DX002 (ip), vehicle: saline with Tween-80 105 % of control

CCCCCCNC1=C(c2ccccc2)C(=O)C(NCCCCCC)=C(c2ccccc2)C1=O
inactive: dose: 100.0 mg/kg/injection, schedule: Q01DX001 (ip), vehicle: carboxymethylcellulose (CMC) 88 % of control | dose: 200.0 mg/kg/injection, schedule: Q01DX001 (ip), vehicle: carboxymethylcellulose (CMC) 94 % of control | dose: 400.0 mg/kg/injection, schedule: Q01DX001 (ip), vehicle: carboxymethylcellulose (CMC) 96 % of control

O=C(CNC(=O)C1CCCN1Sc1ccc([N+](=O)[O-])cc1[N+](=O)[O-])NCC(=O)OCc1ccccc1 (stereo not drawn)
inactive: [10] 98 % of control | [11] 103 % of control | [12] 98 % of control

O=c1ccc2c([N+](=O)[O-])cc([N+](=O)[O-])c(O)c2[nH]1
inactive: [16] 101 % of control | [17] 101 % of control

N=c1c2ncn(C3CCCC3)c2ncn1O
inactive: dose: 50.0 mg/kg/injection, schedule: Q01DX009 (ip), vehicle: saline with Tween-80 114 % of control | dose: 50.0 mg/kg/injection, schedule: Q04DX003 (ip), vehicle: saline with Tween-80 106 % of control | dose: 100.0 mg/kg/injection, schedule: Q01DX001 (ip), vehicle: saline with Tween-80 98 % of control | [19] 103 % of control | [7] 95 % of control | dose: 200.0 mg/kg/injection, schedule: Q01DX001 (ip), vehicle: saline with Tween-80 98 % of control | [20] 115 % of control | [8] 94 % of control

C1C2OC3CN1CC(O2)O3
inactive: dose: 50.0 mg/kg/injection, schedule: Q01DX009 (ip), vehicle: saline 97 % of control | [13] 97 % of control | [14] 94 % of control

COC(=O)C1CCC(NC(=O)NCCCl)CC1 (stereo not drawn)
inactive: [10] 95 % of control and 103 % of control | [11] 93 % of control and 97 % of control | [12] 95 % of control

O=C(NCCCl)Nc1ccc(O)cc1
inactive: [13] 101 % of control | [3] 98 % of control | [14] 105 % of control | [4] 94 % of control | [15] 90 % of control | [22] 100 % of control
